Measured values as given in US20250179047A1, “5-[7-(3,4-DIHYDRO-1H-ISOQUINOLINE-2-CARBONYL)-1,2,3,4 TETRAHYDROISOQUINOLIN-6-YL]-1H-PYRROLE-3-CARBOXAMIDE DERIVATIVES, PHARMACEUTICAL COMPOSITIONS CONTAINING THEM AND THEIR USES AS PRO-APOPTOTIC AGENTS” (LES LABORATOIRES SERVIER, priority 2022, published 2025).
pIC50, pKi: −log10 of the molar value.

Columns and labels:
[1] = Pharmacokinetics in SCID mice; assay type: in vivo; conditions: 25 mg/kg IV bolus; for PK parameters Cinf: concentration at the end of bolus administration; for AUC: mouse, blood, area under curve over 24 h, read-out: PK parameters AUC24
Procedure: (§1) Pharmacokinetic (PK) and platelet toxicity were investigated in SCID mice. Compounds were administered at 25 mg/kg by IV bolus, and formulated in PEG/Ethanol/NaCl 0.9% (40/10/50 v/v/v).
(§2) Blood samples (3 animals/time point and 3 time points/animal) were collected over 24 h after dosing: 0.05 h, 0.5 h, 1 h, 3 h, 6 h and 24 h for PK and 6 h and 24 h for platelets.
(§3) PK samples were analyzed by liquid chromatography using tandem mass spectrometry detection (LC-MS/MS) and platelet count (109/L) was measured using an hematology analyzer. Percentage of platelet loss was calculated at both time points (T+6 h and 24 h) as compared to a control group of 6 animals. PK parameters (Cinf and AUC24, which correspond to the concentration at the end of bolus administration and the area under curve over 24 h, respectively) were also determined using a non-compartmental analysis.

BCL2 F104I = BCL2 F104I (Homo sapiens, UniProt P10415, F104I); test: TR-FRET competitive binding assay, BCL2 F104I; conditions: Ki determined from IC50, read-out: TR_FRET EKI_Bcl2 F104I
Procedure, shortened: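 Terbium-labelled N-terminal Halo-fusion BCL2 or BCLXL (E. coli), 0.5 nM, competed against fluorescein-labelled PUMA peptide (2 or 20 nM) for 2 h at 23° C in 50 mM Hepes pH 7.5, 150 mM NaCl, 5% DMSO. TR-FRET 520/495 nm ratio gave IC50 by four-parameter fit; Ki derived from IC50.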

KMS12PE Bcl2 V156D = test: In vitro cytotoxicity CellTiterGlo 72 h, KMS12PE Bcl2 V156D; assay type: cell-based; conditions: Homo sapiens, KMS-12-PE, read-out: C50 nM, KMS12PE Bcl2 V156D
Procedure: (§4) KMS-12-PE (ACC 606) were purchased from the Leibniz-Institute DSMZ (Braunschweig, Germany) and were grown at 37° C. in a humidified atmosphere with 5% CO2 in media recommended by the suppliers. Lentiviral particles containing Bcl-2 wild type (also named “Bcl2 WT”), Bcl-2 mutated on G101V (also named “Bcl2 G101V”), Bcl-2 mutated on D103Y (also named “Bcl2 D103Y”), Bcl-2 mutated on D103V (also named “Bcl2 D103V”), Bcl-2 mutated on D103E (also named “Bcl2 D103E”), Bcl-2 mutated on F104I (also named “Bcl2 F104I”), Bcl-2 mutated on F104L (also named “Bcl2 F104L”), Bcl-2 mutated on D111A (also named “Bcl2 D111A”), Bcl-2 mutated on A113G (also named “Bcl2 A113G”), Bcl-2 mutated on R129L (also named “Bcl2 R129L”), Bcl-2 mutated on V156D (also named “Bcl2 V156D”) were cloned into pcLV-CMV-DEST-IRES-TagRFP. Lentiviral particles (1×10^6) were mixed with Polybrene at 8 μg/ml and transduced by spinoculation for 1 h at 32° C. and incubated overnight. After 8 days, TagRFP positive-cells were sorted by FACS. BCL2 expression was monitored by immunoblotting using anti-Flag and anti-BCL2 antibodies. Cells were seeded into 96-wells plates and treated with 1:3.16 serial dilution of compounds (9 different concentrations). Cell viability was assessed using CellTiterGlo reagent following treatment for 72 h. Results were normalized to the viability of cells without compounds (control wells). The C50 values were calculated using nonlinear regression algorithms in XCell software.

platelets = test: Platelet depletion in SCID mice; assay type: in vivo; conditions: 25 mg/kg IV bolus, vs control group; for Platelet loss (%) 6 h: 6 h after dosing; for Platelet loss (%) 24 h: 24 h after dosing
Procedure: as §1, §2, §3

KMS12PE Bcl2 A113G = test: In vitro cytotoxicity CellTiterGlo 72 h, KMS12PE Bcl2 A113G; assay type: cell-based; conditions: Homo sapiens, KMS-12-PE, read-out: C50 nM, KMS12PE Bcl2 A113G
Procedure: as §4

Row | PK parameters Cinf [1] [µM] | AUC [1] [µM·h] | pKi (BCL2 F104I) | Platelet loss (%) 6 h (platelets) [%] | Platelet loss (%) 24 h (platelets) [%] | SMILES | pIC50 (KMS12PE Bcl2 V156D) | pIC50 (KMS12PE Bcl2 A113G)
1 | 12.2 | 19.5 | 8.63 | 18.6 | 11.0 | Cc1c(N(C(=O)c2cc(-c3cc4c(cc3C(=O)N3Cc5ccccc5C[C@H]3C)CN(C(=O)Cc3ccc(OCCC5CCOCC5)cc3)CC4)n(C)c2C)c2ccc(O)cc2)cc(C#N)n1C [Example 27, N-(5-cyano-1,2-dimethyl-1H-pyrrol-3-yl)-N-(4-hydroxyphenyl)-1,2-dimethyl-5-{7-[(3R)-3-methyl-1,2,3,4-tetrahydroisoquinoline-2-carbonyl]-2-(2-{4-[2-(oxan-4-yl)ethoxy]phenyl}acetyl)-1,2,3,4-tetrahydroisoquinolin-6-yl}-1H-pyrrole-3-carboxamide] | 8.42 | 8.55
2 | 15.4 | 16.9 | 9.80 | 25.3 | 9.2 | Cc1c(N(C(=O)c2cc(-c3cc4c(cc3C(=O)N3Cc5ccccc5C[C@H]3CN3CCCCC3)CN(C(=O)Cc3ccc(OCCN5CCOCC5)cc3F)CC4)n(C)c2C)c2ccc(O)cc2)cc(C#N)n1C [Example 43, N-(5-cyano-1,2-dimethylpyrrol-3-yl)-5-[2-(2-{2-fluoro-4-[2-(morpholin-4-yl)ethoxy]phenyl}acetyl)-7-{[(3S)-3-(piperidin-1-ylmethyl)-3,4-dihydro-1H-isoquinolin-2-yl]carbonyl}-3,4-dihydro-1H-isoquinolin-6-yl]-N-(4-hydroxyphenyl)-1,2-dimethylpyrrole-3-carboxamide] | 8.18 | 8.60
3 | – | – | 8.31 | – | – | Cc1c(N(C(=O)c2cc(-c3cc4c(cc3C(=O)N3Cc5ccccc5C[C@H]3C)CN(C(=O)Cc3ccc(CCN5CCC(F)(F)CC5)cc3)CC4)n(C)c2C)c2ccc(O)cc2)cc(C#N)n1C [Example 51, N-(5-cyano-1,2-dimethylpyrrol-3-yl)-5-[2-(2-{4-[2-(4,4-difluoropiperidin-1-yl)ethyl]phenyl}acetyl)-7-{[(3R)-3-methyl-3,4-dihydro-1H-isoquinolin-2-yl]carbonyl}-3,4-dihydro-1H-isoquinolin-6-yl]-N-(4-hydroxyphenyl)-1,2-dimethylpyrrole-3-carboxamide] | 7.50 | 8.03
4 | – | – | 9.46 | – | – | Cc1c(N(C(=O)c2cc(-c3cc4c(cc3C(=O)N3Cc5ccccc5C[C@H]3C)CN(C(=O)Cc3ccc(OCCN5CCC(F)CC5)cc3)CC4)n(C)c2C)c2ccc(O)cc2)cc(C#N)n1C [Example 53, N-(5-cyano-1,2-dimethyl-1H-pyrrol-3-yl)-5-[2-(2-{4-[2-(4-fluoropiperidin-1-yl)ethoxy]phenyl}acetyl)-7-[(3R)-3-methyl-1,2,3,4-tetrahydroisoquinoline-2-carbonyl]-1,2,3,4-tetrahydroisoquinolin-6-yl]-N-(4-hydroxyphenyl)-1,2-dimethyl-1H-pyrrole-3-carboxamide] | 7.67 | 8.25
5 | – | – | 9.33 | – | – | Cc1c(N(C(=O)c2cc(-c3cc4c(cc3C(=O)N3Cc5ccccc5C[C@H]3CN3CCCCC3)CN(C(=O)Cc3ccc(OCCC5CCOCC5)cc3)CC4)n(C)c2C)c2ccc(O)cc2)cc(C#N)n1C [Example 66, N-(5-cyano-1,2-dimethylpyrrol-3-yl)-N-(4-hydroxyphenyl)-1,2-dimethyl-5-[2-(2-{4-[2-(oxan-4-yl)ethoxy]phenyl}acetyl)-7-{[(3S)-3-(piperidin-1-ylmethyl)-3,4-dihydro-1H-isoquinolin-2-yl]carbonyl}-3,4-dihydro-1H-isoquinolin-6-yl]pyrrole-3-carboxamide] | 8.12 | 8.54
6 | – | – | 9.47 | – | – | Cc1c(N(C(=O)c2cc(-c3cc4c(cc3C(=O)N3Cc5ccccc5C[C@H]3CN3CCC[C@H](C)C3)CN(C(=O)Cc3ccc(OCCN5CCOCC5)cc3F)CC4)n(C)c2C)c2ccc(O)cc2)cc(C#N)n1C [Example 107] | 8.23 | 8.55
